The source of these data is US10287269B2, “Pyrazolyl pyrimidinone compounds as PDE2 inhibitors” (Merck Sharp & Dohme Corp., priority 2015, dated 2019).

The target of one test is T1, human PDE2A1 (Homo sapiens, UniProt O00408).
T1 construct: GST; purchased BPS Bioscience (San Diego, Calif.) 60020; host or cells: insect cells
T1 sequence (O00408 1-920 isoform O00408-2): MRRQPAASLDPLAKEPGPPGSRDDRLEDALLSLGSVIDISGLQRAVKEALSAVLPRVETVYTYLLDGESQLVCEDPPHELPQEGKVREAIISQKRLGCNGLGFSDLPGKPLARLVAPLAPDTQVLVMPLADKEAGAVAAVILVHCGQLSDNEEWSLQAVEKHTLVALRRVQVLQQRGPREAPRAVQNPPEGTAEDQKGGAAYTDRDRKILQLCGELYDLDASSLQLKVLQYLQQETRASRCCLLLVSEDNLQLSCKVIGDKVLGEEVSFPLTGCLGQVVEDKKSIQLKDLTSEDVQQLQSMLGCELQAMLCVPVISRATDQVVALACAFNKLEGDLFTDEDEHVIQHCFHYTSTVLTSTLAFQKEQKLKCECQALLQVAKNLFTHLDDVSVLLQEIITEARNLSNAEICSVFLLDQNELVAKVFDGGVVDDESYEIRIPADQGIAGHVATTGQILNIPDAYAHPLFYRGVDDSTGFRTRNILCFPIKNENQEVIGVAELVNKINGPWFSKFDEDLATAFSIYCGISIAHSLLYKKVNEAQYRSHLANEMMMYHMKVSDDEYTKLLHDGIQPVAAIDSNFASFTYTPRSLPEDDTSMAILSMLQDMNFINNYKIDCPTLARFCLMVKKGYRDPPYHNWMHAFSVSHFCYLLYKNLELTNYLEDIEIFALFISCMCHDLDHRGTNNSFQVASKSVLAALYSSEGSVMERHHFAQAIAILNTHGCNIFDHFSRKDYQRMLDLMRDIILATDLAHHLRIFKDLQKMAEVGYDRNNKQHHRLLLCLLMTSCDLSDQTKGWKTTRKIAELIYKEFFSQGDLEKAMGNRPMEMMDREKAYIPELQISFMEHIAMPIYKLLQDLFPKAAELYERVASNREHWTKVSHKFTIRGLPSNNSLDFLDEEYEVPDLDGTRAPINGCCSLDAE
Kind of test: PDE2 IMAP FP inhibition assay, human enzyme (PDE selectivity panel format). The format is biochemical. Conditions: Lab A; read-out: Human PDE2 Ki (nM) Lab A. How it is done: Selectivity for PDE2, as compared to other PDE families, was assessed using the IMAP® technology. Human PDE10A2 enzyme was prepared from cytosolic fractions of transiently transfected HEK cells. All other PDE's were GST Tag human enzyme expressed in insect cells and were obtained from BPS Bioscience (San Diego, Calif.): PDE1A (Cat#60010), human PDE2A1 (Cat#60020), PDE3A (Cat#60030), PDE4A1A (Cat#60040), PDE5A1 (Cat#60050), PDE6C (Cat#60060), PDE7A (Cat#60070), PDE8A1 (Cat#60080), PDE9A2 (Cat#60090), PDE11A4 (Cat#60110).
Assays for PDE 1 through 11 were performed in parallel at room temperature in 384-well microtiter plates with an incubation volume of 20.2 μL. Solutions of test compounds were prepared in DMSO and serially diluted with DMSO to yield 30 μL of each of ten solutions differing by 3-fold in concentration, at 32 serial dilutions per plate. […] A Labcyte POD 810 (Labcyte, Sunnyvale, Calif.) was used to dispense 200 nL from each well of the titration plate to make eleven copies of the assay plate for each titration, one copy for each PDE enzyme. A solution of each enzyme (dilution from aliquots, sufficient to produce 20% substrate conversion) and a separate solution of FAM-labeled cAMP or FAM-labeled cGMP from Molecular Devices (Sunnyvale, Calif., product # R7506 or cGMP#R7508), at a final concentration of 50 nM were made in the assay buffer (10 mM Tris HCl, pH 7.2, 10 mM MgCl2, 0.05% NaN3 0.01% Tween-20, and 1 mM DTT). Note that the substrate for PDE2 is 50 nM FAM cAMP containing 1000 nM of cGMP. The enzyme and the substrate were then added to the assay plates in two consecutive additions of 10 μL and then shaken to mix. The reaction was allowed to proceed at room temperature for 60 minutes. A binding solution was then made from the kit components, comprised of 80% Solution A, 20% Solution B and binding reagent at a volume of 1/600 the total binding solution. The enzymatic reaction was stopped by addition of 60 μL of the binding solution to each well of the assay plate. The plates were sealed and shaken for 10 seconds. The plates were incubated at room temperature for one hour, then the parallel and perpendicular fluorescence was measured using a Tecan Genios Pro plate reader (Tecan, Switzerland). The apparent inhibition constants for the compounds against all 11 PDE's was determined from the parallel and perpendicular fluorescent readings as described for PDE10 FP assay using the following apparent KM values for each enzyme and substrate combination: PDE1A (FAM cGMP) 70 nM, human PDE2A1 (FAM cAMP) 10,000 nM, PDE3A (FAM cAMP) 50 nM, PDE4A1A (FAM cAMP) 1500 nM, PDE5A1 (FAM cGMP) 400 nM, PDE6C (FAM cGMP) 700 nM, PDE7A (FAM cAMP) 150 nM, PDE8A1 (FAM cAMP) 50 nM, PDE9A2 (FAM cGMP) 60 nM, PDE10A2 (FAM cAMP) 150 nM, PDE11A4 (FAM cAMP) 1000 nM. The intrinsic PDE2 inhibitory activity of a compound which may be used in accordance with the present invention may be determined by these assays. […]
Consider `COc1ccc(Cc2nc(-c3cnn(C(C)c4ccc(S(F)(F)(F)(F)F)cc4)c3)cc(=O)[nH]2)cc1OC` (single isomer, unassigned) [Example 65, (S)- or (R)-2-(3,4-dimethoxybenzyl)-6-(1-(1-(4-(pentafluorosulfanyl)phenyl)ethyl)-1H-pyrazol-4-yl)pyrimidin-4(3H)-one 4(3H)-one], for which the Ki – broadly, a dissociation constant, usually derived from enzyme kinetics or from competition with a known ligand – was 22 nM.

Turning to `COc1ccc(Cc2nc(-n3cc(C(C)c4ccc(C(F)(F)F)cc4)cn3)cc(=O)[nH]2)cc1OC` (stereo not shown) [Example 137, 2-(3,4-dimethoxybenzyl)-6-(4-(1-(4-(trifluoromethyl)phenyl)ethyl)-1H-pyrazol-1-yl)pyrimidin-4(3H)-one], the Ki was 1 nM.

On to `CCC(c1ccc(C(F)(F)F)cc1F)n1cc(-c2cc(=O)[nH]c(C)n2)cn1` (stereo not shown) [Example 33, 6-(1-(1-(2-fluoro-4-(trifluoromethyl)phenyl)propyl)-1H-pyrazol-4-yl)-2-methylpyrimidin-4(3H)-one], for which the Ki was found to be 32 nM.

For `Cc1ccc(C(C)n2cc(-c3cc(=O)[nH]c(C)n3)cn2)cc1` (stereo not shown) [Example 153, 2-methyl-6-(1-(1-(p-tolyl)ethyl)-1H-pyrazol-4-yl)pyrimidin-4(3H)-one], the Ki came to 1240 nM.

`CCc1nc(-c2cnn(C(C)c3ccc(C(F)(F)F)cc3F)c2)cc(=O)[nH]1` (stereo not shown) [Example 36, 2-ethyl-6-(1-(1-(2-fluoro-4-(trifluoromethyl)phenyl)ethyl)-1H-pyrazol-4-yl)pyrimidin-4(3H)-one]: the Ki was 17.2 nM.

On to `COc1cc(C(F)(F)F)ccc1[C@@H](C)n1cc(-c2cc(=O)[nH]c(C)n2)cn1` (single isomer, unassigned) [Example 2], for which the Ki was 41.5 nM.

In the case of `Cc1nc(-c2cnn(C(C)c3ccc(C4CC4)cc3C)c2)cc(=O)[nH]1` (single isomer, unassigned) [Example 94, (S)- or (R)-6-(1-(1-(4-cyclopropyl-2-methylphenyl)ethyl)-1H-pyrazol-4-yl)-2-methylpyrimidin-4(3H)-one], the Ki stood at 52.5 nM.

With `COc1ccc(Cc2nc(-c3cnn(C(C)c4ccc(C(F)(F)F)cc4F)c3)cc(=O)[nH]2)cc1F` (single isomer, unassigned) [Example 147, (S)- or (R)-6-(1-(1-(2-fluoro-4-(trifluoromethyl)phenyl)ethyl)-1H-pyrazol-4-yl)-2-(3-fluoro-4-methoxybenzyl)pyrimidin-4(3H)-one], the Ki was 3.3 nM.

In the case of `Cc1nc(-c2cnn(C(C)c3ccc(C4CC4)cc3F)c2)cc(=O)[nH]1` (single isomer, unassigned) [Example 91, (R)- or (S)-6-(1-(1-(4-cyclopropyl-2-fluorophenyl)ethyl)-1H-pyrazol-4-yl)-2-methylpyrimidin-4(3H)-one], the Ki is 48.4 nM.

As for `COc1ccc(Cc2nc(-c3cnn(C(C)c4ccc(C(F)(F)F)cc4F)c3)cc(=O)[nH]2)cc1` (single isomer, unassigned) [Example 138, (R)- or (S)-6-(1-(1-(2-fluoro-4-(trifluoromethyl)phenyl)ethyl)-1H-pyrazol-4-yl)-2-(4-methoxybenzyl)pyrimidin-4(3H)-one], the Ki amounted to 7.1 nM.

For `Cc1nc(-c2cnn(C(C)c3ccc(C(F)(F)F)cc3Cl)c2)cc(=O)[nH]1` (single isomer, unassigned) [Example 83, (R)- or (S)-6-(1-(1-(2-chloro-4-(trifluoromethyl)phenyl)ethyl)-1H-pyrazol-4-yl)-2-methylpyrimidin-4(3H)-one], the inhibition constant (Ki) stood at 5.1 nM.

As for `Cc1nc(-c2cnn(C(C)c3ccc(C(F)(F)F)cc3C)c2)cc(=O)[nH]1` (single isomer, unassigned) [Example 57, (S)- or (R)-2-methyl-6-(1-(1-(2-methyl-4-(trifluoromethyl)phenyl)ethyl)-1H-pyrazol-4-yl)pyrimidin-4(3H)-one], the inhibitory constant (Ki) stood at 16.4 nM.

For `COc1ccc(Cc2nc(-c3cnn(C(C)c4ccc(C(F)(F)F)cc4F)c3)cc(=O)[nH]2)cc1F` (single isomer, unassigned) [Example 146, (R)- or (S)-6-(1-(1-(2-fluoro-4-(trifluoromethyl)phenyl)ethyl)-1H-pyrazol-4-yl)-2-(3-fluoro-4-methoxybenzyl)pyrimidin-4(3H)-one], the Ki turned out to be 31.2 nM.

The same test, now with this note: Lab B; read-out: Human PDE2 Ki (nM) Lab B.
As for `COc1ccc(Cc2nc(-n3ccc(C(C)c4ccc(C(F)(F)F)cc4)n3)cc(=O)[nH]2)cc1OC` (single isomer, unassigned) [Example 133, (R)- or (S)-2-(3,4-dimethoxybenzyl)-6-(3-(1-(4-(trifluoromethyl)phenyl)ethyl)-1H-pyrazol-1-yl)pyrimidin-4(3H)-one], the Ki came out at 38.5 nM.

For the compound `Cc1nc(-c2cc([C@H](C)c3ccc(C(F)(F)F)cc3)[nH]n2)cc(=O)[nH]1` (single isomer, unassigned) [Example 24], the inhibition constant (Ki) was determined as 81 nM.

`Cc1nc(-n2cc(C(C)c3ccc(C4(C)CC4)cc3)cn2)cc(=O)[nH]1` (stereo not shown) [Example 40, 2-methyl-6-(4-(1-(4-(1-methylcyclopropyl)phenyl)ethyl)-1H-pyrazol-1-yl)pyrimidin-4(3H)-one]: the Ki came to 197 nM.

Turning to `COc1ccc(Cc2nc(-c3cnn(C(C)c4ccc(S(F)(F)(F)(F)F)cc4)c3)cc(=O)[nH]2)cc1OC` (single isomer, unassigned) [Example 65, (S)- or (R)-2-(3,4-dimethoxybenzyl)-6-(1-(1-(4-(pentafluorosulfanyl)phenyl)ethyl)-1H-pyrazol-4-yl)pyrimidin-4(3H)-one 4(3H)-one], the Ki was 8.5 nM.

Regarding `COc1ccc(Cc2nc(-n3cc(C(C)c4ccc(C(F)(F)F)cc4)cn3)cc(=O)[nH]2)cc1OC` (stereo not shown) [Example 137, 2-(3,4-dimethoxybenzyl)-6-(4-(1-(4-(trifluoromethyl)phenyl)ethyl)-1H-pyrazol-1-yl)pyrimidin-4(3H)-one], the Ki worked out at 0.4 nM.

Regarding `Cc1nc(-c2cnn(C(C)c3ccc(C(F)(F)F)cc3)c2C)cc(=O)[nH]1` (single isomer, unassigned) [Example 81, (R)- or (S)-2-methyl-6-(5-methyl-1-(1-(4-(trifluoromethyl)phenyl)ethyl)-1H-pyrazol-4-yl)pyrimidin-4(3H)-one], the Ki amounted to 194 nM.

`Cc1nc(-c2cc([C@H](C)c3ccc(C(F)(F)F)cc3)[nH]n2)cc(=O)[nH]1` (single isomer, unassigned) [Example 23]: the Ki came out at 19.4 nM.

Regarding `Cc1nc(-n2cc([C@H](C)c3ccc(C(F)(F)F)cc3)cn2)cc(=O)[nH]1` (single isomer, unassigned) [Example 3], the inhibition constant Ki worked out at 40.3 nM.

For `COc1cc(C(F)(F)F)ccc1[C@@H](C)n1cc(-c2cc(=O)[nH]c(C)n2)cn1` (single isomer, unassigned) [Example 2], the Ki turned out to be 17.1 nM.

For `COc1ccc(Cc2nc(-n3ccc(C(C)c4ccc(C(F)(F)F)cc4)n3)cc(=O)[nH]2)cc1OC` (single isomer, unassigned) [Example 134, (R)- or (S)-2-(3,4-dimethoxybenzyl)-6-(3-(1-(4-(trifluoromethyl)phenyl)ethyl)-1H-pyrazol-1-yl)pyrimidin-4(3H)-one], the Ki turned out to be 66.6 nM.

Regarding `Cc1nc(-n2cc([C@](C)(O)c3ccc(C(F)(F)F)cc3F)cn2)cc(=O)[nH]1` (single isomer, unassigned) [Example 16], the inhibition constant (Ki) was determined as 47.1 nM.

On to `Cc1nc(-n2cc([C@H](CO)c3ccc(C(F)(F)F)cc3F)cn2)cc(=O)[nH]1` (single isomer, unassigned) [Example 19], for which the Ki amounted to 85 nM.

`Cc1nc(-c2cnn(C(C)c3ccc(C(F)(F)F)cc3)c2C)cc(=O)[nH]1` (single isomer, unassigned) [Example 82, (S)- or (R)-2-methyl-6-(5-methyl-1-{(1R)-1-[4-(trifluoromethyl)phenyl]ethyl}-1H-pyrazol-4-yl)pyrimidin-4(3H)-one]: the Ki came out at 184 nM.

`Cc1nc(-c2cnn(C(C)c3ccc(S(F)(F)(F)(F)F)cc3)c2)cc(=O)[nH]1` (single isomer, unassigned) [Example 63, (S)- or (R)-2-methyl-6-(1-(1-(4-(pentafluorosulfanyl)phenyl)ethyl)-1H-pyrazol-4-yl)pyrimidin-4(3H)-one]: the Ki is 46.5 nM.

Regarding `Cc1nc(-c2cnn(C(C)c3ccc(S(F)(F)(F)(F)F)cc3)c2)cc(=O)[nH]1` (single isomer, unassigned) [Example 62, (R)- or (S)-2-methyl-6-(1-(1-(4-(pentafluorosulfanyl)phenyl)ethyl)-1H-pyrazol-4-yl)pyrimidin-4(3H)-one], the Ki amounted to 86.5 nM.

In the case of `COc1ccc(Cc2nc(-c3cnn(C(C)c4ccc(C(F)(F)F)cc4F)c3)cc(=O)[nH]2)cc1` (single isomer, unassigned) [Example 138, (R)- or (S)-6-(1-(1-(2-fluoro-4-(trifluoromethyl)phenyl)ethyl)-1H-pyrazol-4-yl)-2-(4-methoxybenzyl)pyrimidin-4(3H)-one], the Ki was found to be 5.1 nM.

As for `Cc1nc(-n2ccc([C@H](C)c3ccc(C(F)(F)F)cc3)n2)cc(=O)[nH]1` (single isomer, unassigned) [Example 5], the Ki amounted to 174 nM.

Regarding `Cc1nc(-c2cnn(C(C)c3ccc(C(F)(F)F)cc3C)c2)cc(=O)[nH]1` (single isomer, unassigned) [Example 57, (S)- or (R)-2-methyl-6-(1-(1-(2-methyl-4-(trifluoromethyl)phenyl)ethyl)-1H-pyrazol-4-yl)pyrimidin-4(3H)-one], the Ki came to 6.8 nM.
